Assay results as given in the supplement of paper PMC10307832.

Columns and labels:
Assay in all cases: relative viability (nuclei count vs DMSO), 5 days (fraction); higher = more cells survive
[1] = compound: Cc1ccc(NC(=O)c2ccc(CN3CCN(C)CC3)cc2)cc1Nc1nccc(-c2cccnc2)n1 [Imatinib] + CC(C)C[C@H](NC(=O)[C@H](Cc1ccccc1)NC(=O)c1cnccn1)B(O)O [Bortezomib] (partner 0.002 µM)
How it was run: (§1)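 Five library-drug doses in √10 steps were combined with a fixed anchor-drug dose, or a single drug was given alone, by pin tool to lung cancer cell lines in 1536-well plates the day after seeding. Nuclei were stained and counted after 5 days. Relative viability is the nuclei count in treated wells over that in vehicle wells, taken as the median of duplicate plates.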

[2] = compound: Cc1ccc(NC(=O)c2ccc(CN3CCN(C)CC3)cc2)cc1Nc1nccc(-c2cccnc2)n1 [Imatinib] + CS(=O)(=O)N1CCN(Cc2cc3nc(-c4cccc5[nH]ncc45)nc(N4CCOCC4)c3s2)CC1 [Pictilisib] (partner 1 µM)
How it was run: as §1

[3] = compound: Cc1ccc(NC(=O)c2ccc(CN3CCN(C)CC3)cc2)cc1Nc1nccc(-c2cccnc2)n1 [Imatinib] + Cc1nc(NC(=O)N2CCC[C@H]2C(N)=O)sc1-c1ccnc(C(C)(C)C(F)(F)F)c1 [Alpelisib] (partner 2 µM)
How it was run: as §1

[4] = compound: Cc1ccc(NC(=O)c2ccc(CN3CCN(C)CC3)cc2)cc1Nc1nccc(-c2cccnc2)n1 [Imatinib] + CS(=O)(=O)CCNCc1ccc(-c2ccc3ncnc(Nc4ccc(OCc5cccc(F)c5)c(Cl)c4)c3c2)o1 [Lapatinib] (partner 2 µM)
How it was run: as §1

| Cell Line | relative viability ([1]; first compound 0.02 µM) | relative viability ([1]; first compound 0.06325 µM) | relative viability ([1]; first compound 0.2 µM) | relative viability ([1]; first compound 0.6325 µM) | relative viability ([1]; first compound 2 µM) | relative viability ([2]; first compound 0.02 µM) | relative viability ([2]; first compound 0.06325 µM) | relative viability ([2]; first compound 0.2 µM) | relative viability ([2]; first compound 0.6325 µM) | relative viability ([2]; first compound 2 µM) | relative viability ([3]; first compound 0.02 µM) | relative viability ([3]; first compound 0.06325 µM) | relative viability ([3]; first compound 0.2 µM) | relative viability ([3]; first compound 0.6325 µM) | relative viability ([3]; first compound 2 µM) | relative viability ([4]; first compound 0.02 µM) | relative viability ([4]; first compound 0.06325 µM) | relative viability ([4]; first compound 0.2 µM) | relative viability ([4]; first compound 0.6325 µM) | relative viability ([4]; first compound 2 µM) |
| --- | --- | --- | --- | --- | --- | --- | --- | --- | --- | --- | --- | --- | --- | --- | --- | --- | --- | --- | --- | --- |
| IA-LM | 0.767 | 1.03 | 0.937 | 0.744 | 0.784 | 0.431 | 0.497 | 0.317 | 0.586 | 0.373 | 0.838 | 1.1 | 0.928 | 0.967 | 0.702 | 1.01 | 1.23 | 0.656 | 1.31 | 0.719 |
| LC-2-ad | 1.16 | 0.658 | 1.18 | 0.985 | 0.929 | 0.379 | 0.492 | 0.573 | 0.429 | 0.43 | 0.965 | 0.967 | 0.913 | 0.819 | 0.817 | 0.933 | 0.886 | 0.884 | 1.02 | 0.935 |
| LCLC-97TM1 | 0.552 |  |  | 0.741 | 0.524 |  |  | 0.18 | 0.225 | 0.164 |  |  | 0.236 | 0.231 | 0.266 |  |  | 0.958 | 0.878 | 0.734 |
| LOU-NH91 | 0.557 | 0.517 | 0.51 | 0.423 | 0.479 | 0.51 | 0.546 | 0.49 | 0.537 | 0.498 | 0.77 | 0.722 | 0.729 | 0.68 | 0.674 | 0.793 | 0.775 | 0.792 | 0.765 | 0.766 |
| LU99A | 1.34 | 1.19 | 1.08 | 1.23 | 1.03 | 0.353 | 0.333 | 0.3 | 0.354 | 0.335 | 0.575 | 0.604 | 0.599 | 0.523 | 0.514 | 1.14 | 1.08 | 0.986 | 0.99 | 1.18 |
| LXF-289 | 1.06 |  | 1.13 | 0.974 | 0.955 | 0.929 | 0.711 | 0.934 | 0.747 | 0.804 | 1.16 | 1.06 | 1.15 | 0.967 | 1.02 | 0.974 | 0.999 | 0.96 | 0.905 | 0.873 |
| NCI-H23 | 1.29 | 0.95 | 1.13 | 1.03 |  | 0.582 | 0.547 | 0.541 | 0.446 | 0.494 | 0.751 |  | 0.866 | 0.731 | 0.58 | 1.2 | 0.959 | 1.11 |  | 1.13 |
| NCI-H322M | 1.16 | 1.34 | 1.26 | 1.1 | 1.1 | 0.516 | 0.454 | 0.561 | 0.485 | 0.565 | 0.771 | 0.871 | 0.857 | 0.772 | 0.866 | 0.613 | 0.61 | 0.656 | 0.534 | 0.63 |
| NCI-H460 | 1.5 | 1.33 | 1.7 | 0.92 |  | 0.465 | 0.277 | 0.335 | 0.506 | 0.3 | 0.632 | 0.818 | 0.667 | 0.532 | 0.465 | 1.41 | 0.872 | 1.36 | 1.17 | 1.09 |
| NCI-H520 | 0.781 | 0.639 | 0.476 | 0.558 | 0.512 | 0.348 | 0.362 | 0.305 | 0.289 | 0.306 | 0.645 | 1.15 | 1.07 | 0.842 | 0.912 | 1.06 |  | 1.01 | 0.82 | 0.86 |
| NCI-H596 | 1.2 | 1.02 |  | 0.944 |  | 0.416 | 0.375 | 0.42 | 0.394 | 0.388 | 0.489 | 0.459 | 0.39 | 0.446 | 0.448 | 1.17 | 1.29 | 1.13 |  | 1.03 |
| NCI-H647 | 1.11 | 1.11 | 1.73 | 1.02 | 0.872 | 0.462 | 0.447 | 0.433 | 0.38 | 0.385 | 1.25 | 1.4 | 1.6 | 1.13 | 1.11 |  | 1.11 | 1.2 | 1.17 | 1.02 |
| NCI-H650 | 0.893 | 0.823 | 0.805 | 1.03 | 0.616 | 1.09 | 1.01 | 0.855 | 0.885 |  | 1.19 | 1.15 | 1.08 | 1.2 | 0.983 | 1.02 | 1.16 | 1 | 1.11 | 0.85 |
| NCI-H661 | 0.81 | 0.613 | 0.821 | 0.607 | 0.852 | 0.333 | 0.431 | 0.456 | 0.374 | 0.413 | 0.689 | 0.406 | 0.546 | 0.68 | 0.521 | 0.434 | 0.296 | 0.546 | 0.19 | 0.481 |
| NCI-H727 | 0.93 | 0.812 |  | 0.868 | 0.745 | 0.356 | 0.442 | 0.355 | 0.524 | 0.383 | 0.496 | 0.585 | 0.529 | 0.659 |  | 0.626 | 0.637 | 0.84 | 0.769 | 0.801 |
| NCI-H1299 | 1.05 | 1.01 | 0.98 | 1.03 | 1.03 | 0.868 | 1.07 | 0.833 | 0.954 | 0.776 | 1.16 | 1.1 | 1.14 | 1.12 | 0.983 | 0.999 | 1 | 0.988 | 0.956 | 0.988 |
| NCI-H1355 | 1.26 |  | 1.31 | 1.13 | 1.18 | 0.432 |  | 0.434 | 0.468 | 0.536 | 0.855 |  | 0.834 | 0.889 | 0.882 | 1.04 |  | 1.1 | 1.02 | 0.99 |
| NCI-H1437 | 0.697 | 0.528 | 0.541 | 0.432 | 0.547 | 0.391 | 0.454 | 0.422 | 0.463 | 0.424 | 1.13 | 1.16 | 1.02 | 0.981 | 0.94 | 0.916 | 0.841 | 0.925 | 0.706 | 0.823 |
| NCI-H1563 | 0.885 | 0.789 | 0.889 | 0.809 | 0.86 | 0.662 | 0.537 | 0.634 | 0.605 | 0.589 | 0.966 | 0.931 | 1.03 | 0.934 | 0.895 | 1.01 | 0.699 | 0.98 | 0.869 |  |
| NCI-H1651 | 1.03 | 0.83 | 0.964 | 0.955 | 0.893 | 0.759 | 0.62 | 0.698 | 0.634 | 0.569 | 0.994 | 1.19 | 1.18 | 0.894 | 1.01 | 1.02 | 1.06 | 0.994 | 0.692 | 0.87 |
| NCI-H1666 | 0.76 | 0.796 | 0.837 | 0.859 | 0.652 | 0.327 | 0.406 | 0.381 | 0.48 | 0.393 | 1.04 | 1.05 | 1.09 | 1.34 | 0.887 | 0.679 | 0.811 | 0.565 | 0.748 | 0.844 |
| NCI-H1703 | 0.289 | 0.29 | 0.138 | 0.214 | 0.186 |  | 0.268 | 0.219 | 0.256 | 0.235 | 0.355 | 0.259 | 0.206 | 0.242 | 0.143 | 1.01 | 1.1 | 0.439 | 0.276 | 0.281 |
| NCI-H1734 | 1.3 |  | 1.02 | 0.938 |  | 0.515 |  | 0.559 | 0.428 |  | 0.749 |  | 0.769 | 0.699 |  | 1.26 |  | 1.3 | 1.1 |  |
| NCI-H1755 | 1.13 | 1.09 | 1.03 |  | 0.928 | 0.457 | 0.348 | 0.531 | 0.495 | 0.473 | 1.09 | 1.04 | 1.13 | 0.949 | 0.981 | 1.14 | 0.994 | 1.06 | 0.997 | 1.02 |
| NCI-H1792 | 1.21 | 0.951 | 0.675 | 0.861 | 0.935 | 0.264 | 0.198 | 0.214 | 0.237 | 0.277 | 0.921 | 0.515 | 0.661 | 0.507 | 0.638 | 0.859 | 1.08 | 0.954 | 0.942 | 0.838 |
| NCI-H1915 | 1.04 |  |  |  |  | 0.962 |  | 1.01 | 0.958 | 0.871 | 1.07 |  | 1.09 | 1.05 | 0.966 | 0.974 |  | 1.04 | 0.952 |  |
| NCI-H1975 | 0.484 | 0.437 | 0.338 | 0.304 | 0.356 | 0.332 | 0.311 | 0.294 | 0.28 | 0.324 | 0.61 | 0.721 | 0.775 | 0.621 | 0.553 | 1.01 | 1.04 | 1.03 | 1.03 |  |
| NCI-H1993 |  |  | 0.954 | 1.11 | 1.02 |  | 0.861 | 0.805 | 0.997 | 0.924 |  | 0.792 | 0.533 | 0.621 | 0.534 |  | 0.872 | 0.774 | 0.809 | 0.698 |
| NCI-H2009 | 1.05 | 0.476 | 1.08 | 1 | 0.906 | 0.809 | 0.429 | 0.909 | 0.878 | 0.896 | 1.18 | 1.24 | 1.26 | 1.21 | 1.13 | 0.974 | 0.442 | 1.05 | 0.87 | 0.939 |
